# Measured values as given in ChEMBL document CHEMBL1201862, “PubChem BioAssay data set” (2004).
#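 Cells were grown in 96-well plates and exposed to each compound for 48 hours at five concentrations; endpoints were interpolated linearly between bracketing concentrations, or set to the highest concentration if not reached. Here, GI50 denotes the concentration required for 50% inhibition of growth.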 Active and inactive are the calls of the source. Cut-off read from the data, not from the text of the source: active = GI50 up to about 1.1 µM and inactive = higher.
# Experiments:
# Experiment in all cases: growth of human tumour cells (NCI), 48 h
# 786-0 = tested on: 786-0
# A498 = tested on: A498
# A549 = tested on: A549
# ACHN = tested on: ACHN
# BT-549 = tested on: BT-549
# CAKI-1 = tested on: CAKI-1
# CCRF-CEM = tested on: CCRF-CEM
# COLO 205 = tested on: COLO 205
# DLD-1 = tested on: DLD-1
# DMS-114 = tested on: DMS-114
# DMS-273 = tested on: DMS-273
# DU-145 = tested on: DU-145
# EKVX = tested on: EKVX
# HCC 2998 = tested on: HCC 2998
# HCT-116 = tested on: HCT-116
# HCT-15 = tested on: HCT-15
# HL-60 = tested on: HL-60
# HOP-18 = tested on: HOP-18
# HOP-62 = tested on: HOP-62
# HOP-92 = tested on: HOP-92
# HT-29 = tested on: HT-29
# Hs-578T = tested on: Hs-578T
# IGROV-1 = tested on: IGROV-1
# K562 = tested on: K562
# KM-20L2 = tested on: KM-20L2
# KM12 = tested on: KM12
# LOX IMVI = tested on: LOX IMVI
# LXFL 529 = tested on: LXFL 529
# M14 = tested on: M14
# M19-MEL = tested on: M19-MEL
# MCF7 = tested on: MCF7
# MDA-MB-231 = tested on: MDA-MB-231
# MDA-MB-435 = tested on: MDA-MB-435
# MDA-N = tested on: MDA-N
# MOLT-4 = tested on: MOLT-4
# Malme-3M = tested on: Malme-3M
# NCI-H226 = tested on: NCI-H226
# NCI-H23 = tested on: NCI-H23
# NCI-H460 = tested on: NCI-H460
# NCI-H522 = tested on: NCI-H522
# NCI/ADR-RES = tested on: NCI/ADR-RES
# OVCAR-3 = tested on: OVCAR-3
# OVCAR-4 = tested on: OVCAR-4
# OVCAR-5 = tested on: OVCAR-5
# OVCAR-8 = tested on: OVCAR-8
# PC-3 = tested on: PC-3
# RPMI-8226 = tested on: RPMI-8226
# RXF 393 = tested on: RXF 393
# RXF 631 = tested on: RXF 631
# SF-268 = tested on: SF-268
# SF-295 = tested on: SF-295
# SF-539 = tested on: SF-539
# SK-MEL-28 = tested on: SK-MEL-28
# SK-MEL-2 = tested on: SK-MEL-2
# SK-MEL-5 = tested on: SK-MEL-5
# SK-OV-3 = tested on: SK-OV-3
# SN12C = tested on: SN12C
# SNB-19 = tested on: SNB-19
# SNB-75 = tested on: SNB-75
# SNB-78 = tested on: SNB-78
# SR = tested on: SR
# SW-620 = tested on: SW-620
# TK-10 = tested on: TK-10
# U-251 = tested on: U-251
# UACC-257 = tested on: UACC-257
# UACC-62 = tested on: UACC-62
# UO-31 = tested on: UO-31
# XF498 = tested on: XF498
smiles,measurement,setting,value
CCC1(O)C(=O)OCc2c1cc1n(c2=O)Cc2cc3c(N)cccc3nc2-1 (configuration not stated) [RS-9-Aminocamptothecin],GI50,786-0,10.8 nM (active)
same,GI50,A498,156 nM (active)
same,GI50,A549,35.4 nM (active)
same,GI50,ACHN,< 10 nM (active)
same,GI50,BT-549,66.8 nM (active)
same,GI50,CAKI-1,< 10 nM (active)
same,GI50,CCRF-CEM,< 10 nM (active)
same,GI50,COLO 205,741 nM (active)
same,GI50,DLD-1,859 nM (active)
same,GI50,DMS-114,< 10.4 nM (active)
same,GI50,DMS-273,< 10 nM (active)
same,GI50,DU-145,< 11 nM (active)
same,GI50,EKVX,1200 nM (inactive)
same,GI50,HCC 2998,177 nM (active)
same,GI50,HCT-116,17.1 nM (active)
same,GI50,HCT-15,267 nM
same,GI50,HL-60,< 12.8 nM (active)
same,GI50,HOP-18,42.4 nM (active)
same,GI50,HOP-62,< 11.9 nM (active)
same,GI50,HOP-92,34.9 nM (active)
same,GI50,HT-29,118 nM (active)
same,GI50,Hs-578T,3650 nM (inactive)
same,GI50,IGROV-1,327 nM (active)
same,GI50,K562,30.9 nM (active)
same,GI50,KM-20L2,132 nM (active)
same,GI50,KM12,240 nM (active)
same,GI50,LOX IMVI,< 10 nM (active)
same,GI50,LXFL 529,341 nM (active)
same,GI50,M14,17.4 nM (active)
same,GI50,M19-MEL,58.8 nM (active)
same,GI50,MCF7,< 10 nM (active)
same,GI50,MDA-MB-231,2100 nM (inactive)
same,GI50,MDA-MB-435,60.7 nM (active)
same,GI50,MDA-N,182 nM (active)
same,GI50,MOLT-4,< 10 nM (active)
same,GI50,Malme-3M,210 nM (active)
same,GI50,NCI-H226,< 10 nM (active)
same,GI50,NCI-H23,< 10.9 nM (active)
same,GI50,NCI-H460,< 10.6 nM (active)
same,GI50,NCI-H522,19.6 nM (active)
same,GI50,NCI/ADR-RES,11.8 nM (active)
same,GI50,OVCAR-3,277 nM (active)
same,GI50,OVCAR-4,345 nM (active)
same,GI50,OVCAR-5,190 nM (active)
same,GI50,OVCAR-8,27 nM (active)
same,GI50,PC-3,115 nM (active)
same,GI50,RPMI-8226,41.6 nM (active)
same,GI50,RXF 393,44.7 nM (active)
same,GI50,RXF 631,47.1 nM (active)
same,GI50,SF-268,< 10 nM (active)
same,GI50,SF-295,10.2 nM (active)
same,GI50,SF-539,< 14 nM (active)
same,GI50,SK-MEL-28,188 nM (active)
same,GI50,SK-MEL-2,288 nM (active)
same,GI50,SK-MEL-5,25.5 nM (active)
same,GI50,SK-OV-3,26.4 nM (active)
same,GI50,SN12C,< 10 nM (active)
same,GI50,SNB-19,< 13.8 nM (active)
same,GI50,SNB-75,13 nM (active)
same,GI50,SNB-78,995 nM (active)
same,GI50,SR,< 10 nM (active)
same,GI50,SW-620,28.1 nM (active)
same,GI50,TK-10,3020 nM (inactive)
same,GI50,U-251,< 11.5 nM (active)
same,GI50,UACC-257,121 nM (active)
same,GI50,UACC-62,< 10 nM (active)
same,GI50,UO-31,< 10.9 nM (active)
same,GI50,XF498,145 nM (active)
CC(=O)OCC1OC(OC2CC3C(C)(C)C(OC(C)=O)CC[C@]3(C)C3CCC45CC4(CC[C@H]5C(C)CC(O)C4OC4(C)C)[C@]23C)C(O)C(O)C1O (some centres not stated),GI50,786-0,2700 nM (inactive)
same,GI50,A498,4720 nM (inactive)
same,GI50,A549,2090 nM (inactive)
same,GI50,ACHN,2210 nM (inactive)
same,GI50,CAKI-1,4320 nM (inactive)
same,GI50,CCRF-CEM,1040 nM (active)
same,GI50,COLO 205,1010 nM (active)
same,GI50,DLD-1,1790 nM (inactive)
same,GI50,DMS-114,1580 nM (inactive)
same,GI50,DMS-273,1990 nM (inactive)
same,GI50,EKVX,3110 nM (inactive)
same,GI50,HCC 2998,1370 nM (inactive)
same,GI50,HCT-116,1340 nM (inactive)
same,GI50,HCT-15,1550 nM
same,GI50,HL-60,1180 nM (inactive)
same,GI50,HOP-18,2200 nM (inactive)
same,GI50,HOP-62,5560 nM (inactive)
same,GI50,HOP-92,2250 nM (inactive)
same,GI50,HT-29,920 nM (active)
same,GI50,IGROV-1,71.5 nM (active)
same,GI50,K562,1130 nM (inactive)
same,GI50,KM-20L2,1850 nM (inactive)
same,GI50,KM12,1350 nM (inactive)
same,GI50,LOX IMVI,1630 nM (inactive)
same,GI50,LXFL 529,3110 nM (inactive)
same,GI50,M14,2030 nM (inactive)
same,GI50,M19-MEL,1930 nM (inactive)
same,GI50,MOLT-4,189 nM (active)
same,GI50,Malme-3M,7980 nM (inactive)
same,GI50,NCI-H226,5060 nM (inactive)
same,GI50,NCI-H23,2860 nM (inactive)
same,GI50,NCI-H460,1790 nM (inactive)
same,GI50,NCI-H522,1590 nM (inactive)
same,GI50,OVCAR-3,2580 nM (inactive)
same,GI50,OVCAR-4,1480 nM (inactive)
same,GI50,OVCAR-5,1030 nM (active)
same,GI50,OVCAR-8,2200 nM (inactive)
same,GI50,RPMI-8226,1950 nM (inactive)
same,GI50,RXF 393,1550 nM (inactive)
same,GI50,RXF 631,2320 nM (inactive)
same,GI50,SF-268,2440 nM (inactive)
same,GI50,SF-295,1690 nM (inactive)
same,GI50,SF-539,3890 nM (inactive)
same,GI50,SK-MEL-28,2030 nM (inactive)
same,GI50,SK-MEL-2,1840 nM (inactive)
same,GI50,SK-MEL-5,2690 nM (inactive)
same,GI50,SK-OV-3,2300 nM (inactive)
same,GI50,SN12C,2290 nM (inactive)
same,GI50,SNB-19,4060 nM (inactive)
same,GI50,SNB-75,2270 nM (inactive)
same,GI50,SNB-78,5710 nM (inactive)
same,GI50,SR,2650 nM (inactive)
same,GI50,SW-620,2430 nM (inactive)
same,GI50,TK-10,3350 nM (inactive)
same,GI50,U-251,1820 nM (inactive)
same,GI50,UACC-257,1980 nM (inactive)
same,GI50,UACC-62,1990 nM (inactive)
same,GI50,UO-31,3680 nM (inactive)
same,GI50,XF498,1530 nM (inactive)
